Reference: ChEMBL document CHEMBL1137576, “Interactions of hepatitis B core antigen and peptide inhibitors” (J Med Chem, 2007)
Where a SMILES comes first, the peptide text is derived from it.

Tests used:
[1] = target: Core antigen (Hepatitis B virus) (UniProt Q03732); assay: (§1) Binding affinity to HBcAg
[2] = target: Core antigen (Hepatitis B virus, UniProt Q03732); assay: as §1
Sequence of Core antigen (Q03732 whole entry): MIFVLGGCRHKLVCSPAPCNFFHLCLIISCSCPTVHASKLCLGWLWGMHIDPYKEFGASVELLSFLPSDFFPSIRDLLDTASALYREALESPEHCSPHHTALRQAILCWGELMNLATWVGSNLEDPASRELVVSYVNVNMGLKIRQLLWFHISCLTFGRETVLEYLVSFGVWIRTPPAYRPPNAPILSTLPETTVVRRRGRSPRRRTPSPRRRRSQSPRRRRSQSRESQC

Sequence of Core antigen (Hepatitis B virus) (Q03732 as listed by the source): as the sequence (Q03732 whole entry) above

CC[C@H](C)[C@H](NC(=O)[C@H](CC(N)=O)NC(=O)[C@H](CO)NC(=O)[C@H](Cc1ccccc1)NC(=O)[C@H](Cc1ccccc1)NC(=O)[C@H](CO)NC(=O)[C@@H](N)Cc1c[nH]c2ccccc12)C(=O)O (H-WSFFSNI-OH)
Ka [1]: 5.4 10^4/M
Kd [2]: 18.5 µM

CSCC[C@H](NC(=O)[C@H](CCCNC(=N)N)NC(=O)CNC(=O)[C@H](CC(C)C)NC(=O)[C@H](CC(C)C)NC(=O)[C@H](CO)NC(=O)[C@H](CCCNC(=N)N)NC(=O)[C@H](Cc1cnc[nH]1)NC(=O)[C@@H](N)CCSC)C(=O)N[C@@H](CCCCN)C(=O)NCC(=O)N[C@@H](C)C(=O)O
Ka [1]: 1.26 10^4/M
Kd [2]: 79.4 µM
